Patent US9248085B2, “Effective depilatory article” (The Procter & Gamble Company, priority 2011, dated 2016)

Assay: Hair removal from the skin and skin irritation by thioglycolate salts (statement, no method)
Assay type: in vivo
Details: even at low doses

O=C([O-])CS.[K+] [potassium thioglycolate]
hair removal from the skin: effective at removing hair from the skin
